Experimental data reported in patent US20250214942A1, “INHIBITORS OF RECEPTOR INTERACTING PROTEIN KINASE I FOR THE TREATMENT OF DISEASE” (Board of Regents, The University of Texas System, priority 2019, published 2025).

The molecules below were run on human monocytic cell line U937 (assay: Human U937 cellular necroptosis assay (TNFalpha + z-VAD-FMK, Cell Titer-Glo viability)). Details: Homo sapiens, U-937, 22 h, U937 cells, 25 ng/mL human TNFalpha + 25 μM z-VAD-FMK, read-out: hU937 Avg IC50.
Type: cell-based
Procedure, shortened: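 Readout is CellTiter-Glo 2.0 luminescence after 22 h at 37° C with compound, in cells triggered by human TNFalpha (25 ng/mL) and z-VAD-FMK (25 μM) in phenol red-free RPMI/10% FBS. Values are run-averaged IC50s from a four-parameter logistic curve.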

Point of comparison: `Cc1cc(F)c(C2CC=NN2C(=O)C23CC(Cn4ncc5cc(C#N)ccc54)(C2)C3)cc1F` (centres unmarked) [Example 236, 1-((3-(5-(2,5-difluoro-4-methylphenyl)-4,5-dihydro-1H-pyrazole-1-carbonyl)-bicyclo[1.1.1]pentan-1-yl)-methyl)-1H-indazole-5-carbonitrile], IC50 3.8 nM. Against it:
- COc1cc(C(F)C23CC(C(=O)N4N=CCC4c4cc(F)cc(F)c4)(C2)C3)ncn1 (centres unmarked) [Example 229, (5-(3,5-difluorophenyl)-4,5-dihydro-1H-pyrazol-1-yl)(3-(fluoro(6-methoxypyrimidin-4-yl)methyl)bicyclo[1.1.1]-pentan-1-yl)methanone] — 1300-fold higher, 5060 nM
- N#Cc1cnc(OCC23CC(C(=O)N4N=CCC4c4ccccc4Cl)(C2)C3)cn1 (centres unmarked) [Example 318, 5-((3-(5-(2-chlorophenyl)-4,5-dihydro-1H-pyrazole-1-carbonyl)bicyclo[1.1.1]pentan-1-yl)methoxy)pyrazine-2-carbonitrile] — 14-fold higher, 55 nM
- CN(C(=O)C12CC(Cn3ncc4cc(C#N)ccc43)(C1)C2)c1ccccc1Cl [Example 299, N-(2-chlorophenyl)-3-((5-cyano-1H-indazol-1-yl)-methyl)-N-methylbicyclo-[1.1.1]pentane-1-carboxamide] — 1800-fold higher, 7010 nM
- N#Cc1cnc(OCC23CC(C(=O)N4N=CCC4c4cccc(Cl)c4Cl)(C2)C3)cn1 (centres unmarked) [Example 311, 5-((3-(5-(2,3-dichlorophenyl)-4,5-dihydro-1H-pyrazole-1-carbonyl)bicyclo[1.1.1]pentan-1-yl)methoxy)pyrazine-2-carbonitrile] — 11-fold higher, 40 nM
- Cc1c(F)cc(C2CC=NN2C(=O)C23CC(Cn4ncc5cc(C#N)ccc54)(C2)C3)cc1F (centres unmarked) [Example 203, 1-((3-(5-(3,5-Difluoro-4-methylphenyl)-4,5-dihydro-1H-pyrazole-1-carbonyl)bicyclo[1.1.1]pentan-1-yl)methyl)-1H-indazole-5-carbonitrile] — within 1.5-fold, 5.5 nM
- Cc1csc(C2CC=NN2C(=O)C23CC(Cn4ncc5cc(C#N)ccc54)(C2)C3)n1 (centres unmarked) [Example 250, 1-((3-(5-(4-methylthiazol-2-yl)-4,5-dihydro-1H-pyrazole-1-carbonyl)bicyclo[1.1.1]-pentan-1-yl)methyl)-1H-indazole-5-carbonitrile] — 70-fold higher, 267 nM
- N#Cc1ccc2c(cnn2CC23CC(C(=O)N4N=CCC4c4cc(F)c(Br)c(F)c4)(C2)C3)c1 (centres unmarked) [Example 241, 1-((3-(5-(4-bromo-3,5-difluorophenyl)-4,5-dihydro-1H-pyrazole-1-carbonyl)-bicyclo[1.1.1]pentan-1-yl)-methyl)-1H-indazole-5-carbonitrile] — 4.7-fold higher, 18 nM
- N#Cc1ccc2c(cnn2CC23CC(C(=O)N4N=CCC4c4cc(F)c(C5CC5)c(F)c4)(C2)C3)c1 (centres unmarked) [Example 340, 1-((3-(5-(4-cyclopropyl-3,5-difluorophenyl)-4,5-dihydro-1H-pyrazole-1-carbonyl)-bicyclo[1.1.1]pentan-1-yl)-methyl)-1H-indazole-5-carbonitrile] — 14-fold higher, 54 nM
- Cc1nc(CC#N)nn1CC12CC(C(=O)N3N=CCC3c3cc(F)cc(F)c3)(C1)C2 (centres unmarked) [Example 223, 2-(1-((3-(5-(3,5-difluoro-phenyl)-4,5-dihydro-1H-pyrazole-1-carbonyl)bicyclo-[1.1.1]pentan-1-yl)methyl)-5-methyl-1H-1,2,4-triazol-3-yl)acetonitrile] — 2600-fold higher, 9740 nM
- Cc1cnc(C2CC=NN2C(=O)C23CC(COc4ccc(C#N)cn4)(C2)C3)cn1 (centres unmarked) [Example 282, 6-((3-(5-(5-methylpyrazin-2-yl)-4,5-dihydro-1H-pyrazole-1-carbonyl)bicyclo[1.1.1]-pentan-1-yl)methoxy)-nicotinonitrile] — 40-fold higher, 153 nM
- Cc1cc(C#N)cnc1OCC12CC(C(=O)N3N=CCC3c3cc(F)cc(F)c3)(C1)C2 (centres unmarked) [Example 225, 6-((3-(5-(3,5-difluorophenyl)-4,5-dihydro-1H-pyrazole-1-carbonyl)bicyclo[1.1.1]pentan-1-yl)methoxy)-5-methyl-nicotinonitrile] — 24-fold higher, 92 nM
- N#Cc1ccc2c(cnn2CC23CC(C(=O)N4N=CCC4c4ncccn4)(C2)C3)c1 (centres unmarked) [Example 259, 1-((3-(5-(pyrimidin-2-yl)-4,5-dihydro-1H-pyrazole-1-carbonyl)bicyclo[1.1.1]pentan-1-yl)methyl)-1H-indazole-5-carbonitrile] — 1400-fold higher, 5450 nM
- Cn1cc(-c2ccc(OCC34CC(C(=O)N5N=CCC5c5cc(F)cc(F)c5)(C3)C4)c(Cl)c2)cn1 (centres unmarked) [Example 341, (3-((2-chloro-4-(1-methyl-1H-pyrazol-4-yl)phenoxy)methyl)-bicyclo[1.1.1]pentan-1-yl)(5-(3,5-difluorophenyl)-4,5-dihydro-1H-pyrazol-1-yl)-methanone] — 6.1-fold higher, 23 nM
- N#Cc1cnc(OCC23CC(C(=O)N4N=CCC4c4cc(F)ccc4F)(C2)C3)cn1 (centres unmarked) [Example 268, 5-((3-(5-(2,5-difluorophenyl)-4,5-dihydro-1H-pyrazole-1-carbonyl)bicyclo[1.1.1]pentan-1-yl)methoxy)pyrazine-2-carbonitrile] — within 1.5-fold, 3.9 nM
- N#Cc1nc(C2CC2)nn1CC12CC(C(=O)N3N=CCC3c3cc(F)cc(F)c3)(C1)C2 (centres unmarked) [Example 217, 3-cyclopropyl-1-((3-(5-(3,5-difluorophenyl)-4,5-dihydro-1H-pyrazole-1-carbonyl)-bicyclo[1.1.1]pentan-1-yl)-methyl)-1H-1,2,4-triazole-5-carbonitrile] — 26-fold higher, 99 nM
- Cc1ccc(C2CC=NN2C(=O)C23CC(COc4cnc(C#N)cn4)(C2)C3)cc1F (centres unmarked) [Example 269, 5-((3-(5-(3-fluoro-4-methyl-phenyl)-4,5-dihydro-1H-pyrazole-1-carbonyl)bicyclo-[1.1.1]pentan-1-yl)-methoxy)pyrazine-2-carbonitrile] — within 1.5-fold, 5.4 nM
- Cn1cc(-c2cnc(OCC34CC(C(=O)N5N=CCC5c5cc(F)cc(F)c5)(C3)C4)cn2)cn1 (centres unmarked) [Example 344, (5-(3,5-difluorophenyl)-4,5-dihydro-1H-pyrazol-1-yl)(3-(((5-(1-methyl-1H-pyrazol-4-yl)pyrazin-2-yl)oxy)methyl)-bicyclo[1.1.1]pentan-1-yl)methanone] — 15-fold higher, 56 nM
- N#Cc1cnc(OCC23CC(C(=O)N4N=CCC4c4ccc(F)c(CO)c4)(C2)C3)cn1 (centres unmarked) [Example 207, 5-((3-(5-(4-Fluoro-3-(hydroxymethyl)phenyl)-4,5-dihydro-1H-pyrazole-1-carbonyl)bicyclo[1.1.1]pentan-1-yl)methoxy)pyrazine-2-carbonitrile] — 170-fold higher, 633 nM
- N#Cc1cnc(OCC23CC(C(=O)N4N=CCC4c4cn5ccccc5n4)(C2)C3)cn1 (centres unmarked) [Example 317, 5-((3-(5-(imidazo[1,2-a]-pyridin-2-yl)-4,5-dihydro-1H-pyrazole-1-carbonyl)bicyclo-[1.1.1]pentan-1-yl)methoxy)-pyrazine-2-carbonitrile] — 2200-fold higher, 8510 nM
- N#Cc1ccc2c(cnn2CC23CC(C(=O)N4N=CCC4c4ccc(F)cc4F)(C2)C3)c1 (centres unmarked) [Example 240, 1-((3-(5-(2,4-difluorophenyl)-4,5-dihydro-1H-pyrazole-1-carbonyl)bicyclo[1.1.1]pentan-1-yl)methyl)-1H-indazole-5-carbonitrile] — 3.4-fold higher, 13 nM
- N#Cc1cnc2c(ccn2CC23CC(C(=O)N4N=CCC4c4cc(F)cc(F)c4)(C2)C3)n1 (centres unmarked) [Example 211, 5-((3-(5-(3,5-difluorophenyl)-4,5-dihydro-1H-pyrazole-1-carbonyl)bicyclo[1.1.1]pentan-1-yl)methyl)-5H-pyrrolo[2,3-b]pyrazine-2-carbonitrile] — 4.2-fold higher, 16 nM
- COc1cnnc(OCC23CC(C(=O)N4N=CCC4c4cc(F)cc(F)c4)(C2)C3)c1 (centres unmarked) [Example 329, (5-(3,5-difluorophenyl)-4,5-dihydro-1H-pyrazol-1-yl)(3-(((5-methoxypyridazin-3-yl)-oxy)methyl)bicyclo[1.1.1]-pentan-1-yl)methanone] — 340-fold higher, 1290 nM

Same assay, conditions: U937 cells, 25 ng/mL human TNFalpha + 25 μM z-VAD-FMK, 22 h; read-out: hU937 Avg IC50

Point of comparison: `N#Cc1cnc(OCC23CC(C(=O)NCc4ccccc4F)(C2)C3)cn1` [Example 293, 3-(((5-cyanopyrazin-2-yl)oxy)-methyl)-N-(2-fluorobenzyl)-bicyclo[1.1.1]pentane-1-carboxamide], IC50 1500 nM. Against it:
- O=C(N1N=CCC1c1cc(F)cc(F)c1)C12CC(Cn3ncc4ncccc43)(C1)C2 (centres unmarked) [Example 148, (3-((1H-pyrazolo[4,3-b]-pyridin-1-yl)methyl)bicyclo-[1.1.1]pentan-1-yl)(5-(3,5-difluorophenyl)-4,5-dihydro-1H-pyrazol-1-yl)methanone] — 1.6-fold lower, 912 nM

What follows are molecules tested against RIPK1 (Homo sapiens (Human), UniProt Q13546) (assay: ADP-Glo kinase assay (RIPK1 activity, conversion of ATP to ADP)). Details: 5 nM RIPK1, 50 μM ATP, 6 h reaction; footnote symbol (a); read-out: RIPK1 Enzyme Avg IC50.
Sequence of RIPK1 (Q13546 1-327): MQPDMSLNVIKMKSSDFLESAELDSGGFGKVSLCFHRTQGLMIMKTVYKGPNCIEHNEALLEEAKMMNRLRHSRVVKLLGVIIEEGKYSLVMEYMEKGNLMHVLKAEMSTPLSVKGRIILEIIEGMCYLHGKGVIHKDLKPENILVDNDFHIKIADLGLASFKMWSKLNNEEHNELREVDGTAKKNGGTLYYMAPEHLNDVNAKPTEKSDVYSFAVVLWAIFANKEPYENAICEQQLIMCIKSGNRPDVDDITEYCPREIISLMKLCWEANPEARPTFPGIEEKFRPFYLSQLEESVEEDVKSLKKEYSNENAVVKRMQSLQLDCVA
Type: biochemical
Experimental: In order to measure RIPK1 activity the ADP-Glo kinase assay (Promega, Catalog #V7002) was used to measure the conversion of ATP to ADP. This enzymatic assay was performed in a 384-well white, Optiplate (Perkin Elmer, Catalog #6007299) with assay buffer consisting of 50 mM HEPES pH 7.5 (Gibco, Catalog #15630-080), 50 mM NaCl (Teknova, Catalog #S0252), 30 mM MgCl2 (Ambion, Catalog #AM9530G), 1 mM DTT (Santa Cruz Biotechnology, Catalog #sc-29089), 0.05% BSA (Sigma, Catalog #A3059-50G) and 0.02% CHAPS (Sigma, Catalog #C5070-5G). Stock solutions of the test compounds were prepared in 100% DMSO (Sigma, Catalog #D2650) and serially diluted 1:3 using 100% DMSO. Compounds were additionally diluted 1:40 in assay buffer, and 2 μL/well were transferred to the assay plate. 4 μL/well (final concentration of 5 nM) of RIPK1 protein (SignalChem, Catalog #R07-1IG-05) diluted in assay buffer and added to the assay plate followed by a 10 minute preincutation at rt. 4 μL/well of ATP (Promega, Catalog #V7002) (final concentration of 50 μM) diluted in assay buffer were then added to the assay plate followed by a 6 h reaction time. Final concentrations of RIPK1 and ATP refer to a 10 μL volume. Luminescence was measured using a BioTek Synergy™ NEO plate reader. IC50 values were calculated using a four-parameter logistic curve fit using Genedata Screener software.

Molecule `COC(=O)C12CC(C(=O)NCc3cc(F)cc(F)c3)(C1)C2` [Example 121, methyl 3-((3,5-difluoro-benzyl)carbamoyl)-bicyclo[1.1.1]pentane-1-carboxylate] has an IC50 of over 50000 nM.
